Nine molecules from patent US5709816A, “Singlet oxygen quenchers and external compositions containing the same” (Kao Corporation, priority 1899, dated 1998) can be followed below.

The nature of assay [1]: Quenching rate constant of singlet oxygen (Rose Bengal photosensitization, Stern-Volmer method). Format: biochemical. As to conditions: for weakening of the 1,270 nm singlet oxygen emission peak with increasing quencher concentration: 50 μM ethanol solution of Rose Bengal, 490-590 nm irradiation. The text has this: Method for measuring the quenching rate constant of singlet oxygen:
The apparatus used for measuring singlet oxygen included the following parts.
(1) Light source: Xenon lamp (150 W) (Atago Bussan K.K.)
(2) Filters on the excitation side: Water filter (optical path: 50 mm), Color glass filters (HA-15, HA-30, G-533, manufactured by Hoya K.K.)
(3) Sample: Square quartz cell (2×10×50 mm)
(4) Filters on the detection side: Color glass filter (IR-85, manufactured by Hoya K.K.), Interference filter (Nippon Shinku-Kogaku K.K.)
(5) Spectrometer and detector: Spectrometer (HR-320, Jovin Yvon Co.), Germanium (Ge) detector (EO-817L, a type using liquid nitrogen as a coolant, North coast Scientic Corporation)
(6) Amplifier: Light chopper (5584, NF Co.), Frequency filter (E-3201B, NF Co.), Super low noise amplifier (SA-200F3, NF Co.), Digital storage oscilloscope (2431L, SONY Tektronix Co.)
(7) Recording section: Personal computer (PC-9801 BA, NEC Corporation), GP-IB interface
(8) Oxygen concentration control unit: High-pressure oxygen cylinder
Using this apparatus, light was irradiated onto a system which is known to produce singlet oxygen through photochemical sensitization. The wavelength of the light was within an appropriate absorption range of the photosensitizer employed. weak emission in the near infrared region, which is specific to singlet oxygen, was measured for its intensity I. Subsequently, the emission obtained when a test substance was added to the same system was measured. From the decrease in emission intensity I, the quenching rate constant of singlet oxygen of the test substance could be measured in accordance with the Stern-Volmer method. However, since some substances react with the photochemical sensitization system to cause errors in the measurements, the method described by R. H. Young et al., Photochem. Photobiol., vol. 17, p. 233 (1973) was applied to correct this contribution quenching.
A 50 μM ethanol solution of Rose Bengal in a 400 μl square quartz cell was used as a test substance.
First, the light within 490-590 nm, which is appropriate for the maximum absorption wavelength of Rose Bengal, was irradiated onto the cell containing the test substance.
Similarly, another system was subjected to measurement in which a typical singlet oxygen quencher, β-carotene, sodium azide,or 1,4-diazabicyclo[2.2.2]octane, had been added.
Measurement of the quenching rate constant of singlet oxygen: An ethanol solution of each of compounds obtained in the above-described Synthesis Examples and N-phenyldiethanolamine (compound (36)), with Rose Bengal, as a conventional photosensitizer, was used for the measurement of the quenching rate constants of singlet oxygen.
First, emission intensity I of a mixture solution containing 50 μM of Rose Bengal and the above compounds were measured under saturated air conditions. The ratio IOair /Iair was calculated, wherein Iair represents the emission intensity measured for a solution with a test substance at a concentration of Cq (Iair), and Oair represents the emission intensity measured for a solution without test substance. Next, under saturated oxygen conditions, emission intensity was measured for a solution with a test substance at the same concentration Cq (I302). Using these emission intensities, the correction term Fair was obtained in accordance with the following equation.
Interference attributed to the test substance with respect to the photosensitization reaction system was corrected by multiplying IOair /Iair by Fair.
Using the following equation:
(IOair /Iair)'=1+kq ·.tau.·Cq

Assay [2] deals with skin of white guinea pigs. Put plainly: Inhibition of erythema formation (UV-A/UV-B irradiation). The format is in vivo. To be noted: Cavia porcellus, light or radiation study, topical; 5 wt. % in ethanol; UV-A/UV-B 40 J/cm^2; determined after 1 day and 2 days; read-out: Erythema inhibition rate. The text has this: Inhibition of erythema formation
The hair of white guinea pigs (8 weeks old, female) hair was removed by shaving, and an ethanol solution containing a test substance (5 wt. %) was applied to the shaved part of each animal. A mixture of UV-A/UV-B (40 J/cm^2, measured at 365 nm using a UV-radiometer UVR-305/365-D, Torex Co.) was irradiated onto the back of each guinea pig using a solar simulator Model 1600 (Solar Light Co.). After 1 day and 2 days of irradiation, the erythema formation was visually determined by the standards of the Japanese Dermatological Association to obtain erythema inhibition ratios.

For assay [3], the system named is skin of colored guinea pigs. Put plainly: Inhibition of delayed darkening (UV-A/UV-B irradiation). Format: in vivo. To be noted: 7 wt. % in ethanol; UV-A/UV-B 50 J/cm^2; 14 days after irradiation; color difference meter. On the procedure: Inhibition of delayed darkening
The hair of colored guinea pigs (8 week old, female) hair was removed, and an ethanol solution containing a test substance (7 wt. %) was applied to the skin. A mixture of UV- A/UV-B rays (50 J/cm^2, measured at 365 nm using a UV-radiometer UVR-305/365-D, Torex Co.) was irradiated onto the back of each guinea pig using a solar simulator. Fourteen days after irradiation, delayed darkening inhibition ratios were measured using a color difference meter (Model 1001P. Nippon Kogyo Co., Ltd.).

Assay [4] deals with sunburn cells in skin of ICR/HR mice. Put plainly: Inhibition of sunburn cell formation (UV-B irradiation). The format is in vivo. To be noted: 1 wt. % in ethanol, UV-B 100 mJ/cm^2, 24 hours later; for inhibition in vivo at 1 %: Mus musculus, light or radiation study, topical, read-out: Inhibition ratio regarding sunburn cell formation. The text has this: Inhibition of sunburn cell formation
Ethanol solution of a test substance (1 wt. %) was applied onto the skin of ICR/HR mice. UV-B (100 mJ/cm^2) was irradiated onto the skin (health lamp SE20/SLE, Toshiba). Twenty-four hours later, the skin was biopsied and stained using hematoxylin & eosin, after which the number of sunburn cells were counted under microscope.

A further assay relates to skin of ICR/HR mice. Put plainly: Inhibition of wrinkle formation in the skin of mice (UV-B, 16 weeks). The format is in vivo, ICR/HR mouse. As to conditions: 1 wt. % in ethanol, 1 MED UV-B five times per week over sixteen weeks; for inhibition in vivo at 1 %: Mus musculus, topical, 2688 h. The text has this:
Inhibition of wrinkle formation in the skin of mice
To the back of each ICR/HR mouse (female, 6 weeks old), an ethanol solution containing a test substance (1 wt. %) was applied. One (1) MED of UV-B was irradiated thereto using a health lamp SL20-SLE (Toshiba). Irradiation was repeated five times per week over sixteen weeks. Wrinkle formation was visually scored using the following five rankings.
1: Mild and questionable wrinkles are observed
2: Mild but clear and definite wrinkles are observed
3: Moderate wrinkles are observed
4: Severe wrinkles are observed
Using the above rankings, wrinkle formations were scored and the inhibition ratios were determined by the division by the blank score.

Assay [5] relates to cultured human fibroblasts. Put plainly: Inhibition of lipid peroxide formation in cultured human fibroblasts (TBA method). The format is cell-based. As to conditions: 0.01 wt. % in ethanol, 100 mM porphyrin; for inhibition at 0.01 wt%: Homo sapiens, Fibroblast, light or radiation study, UV-A/UV-B 1 J/cm^2, read-out: Inhibition ratio regarding lipid peroxide formation. As for the experimental part:
Inhibition of lipid peroxide formation
Cultured human fibroblasts were combined with 100 mM porphyrin and a test substance (0.01 wt. %, in ethanol). A mixture of UV-A/UV-B rays (1 J/cm^2, measurements performed at 365 nm) was irradiated onto the resultant cell culture using a solar simulator. The fibroblasts were collected after the trypsin treatment, then extracted hydrophobic substances using acetone. The extracted substances were dried under nitrogen to prepare cellular lipid samples. A TBA method was used to measure lipid peroxides in cells and inhibition ratio by a test substance.

For assay [6], the system named is E. coli vector pUC119 DNA. The format is biochemical. As to conditions: 0.01 wt. % in ethanol; 100 mM porphyrin; UV-A/UV-B 3 J/cm^2; agarose gel electrophoresis. On the procedure:
To a mixture of […] E. coli vector pUC119 DNA and 100 mM porphyrin, an ethanol solution containing a test substance (0.01 wt. %) was added. A mixture of UV-A/UV-B (3 J/cm^2, measured at 365 nm) was irradiated onto the resultant DNA mixture using a solar simulator. A 2.5-fold amount of ethanol and a 0.1-fold amount of 5M sodium acetate were added and the DNA was precipitated. The DNA pellet was dissolved in a TE buffer, and analyzed through agarose gel electrophoresis. Inhibition of DNA single strand breaks formation was measured.

The next assay deals with collagen. Put plainly: Inhibition of protein denaturation (collagen crosslinking, porphyrin + UV). The format is biochemical. As to conditions: 0.1 wt. % in ethanol; collagen 0.5 mg/ml, porphyrin 100 mM; UV-A/UV-B 3 J/cm^2; SDS-PAGE. As for the experimental part:
Inhibition of protein denaturation
An ethanol solution containing a test substance (0.1 wt. %) was added to a mixture of collagen (0.5 mg/ml) and 2 porphyrin (100 mM). A mixture of UV-A/UV-B (3 J/cm^2, measured at 365 nm) was irradiated onto the resultant mixture using a solar simulator. The irradiated mixture was applied to SDS-PAGE electrophoresis, and collagen crosslinking inhibition ratios were measured.

The subject of assay [7] is dopachrome formation from dopa. Put plainly: Inhibition of immediate pigment darkening (dopachrome formation from dopa, porphyrin + UV). To be noted: 0.5 wt. % in ethanol; dopa 1 mM, porphyrin 5 mM; UV-A/UV-B 3 J/cm^2; absorption at 475 nm. The format is biochemical. On the procedure: Inhibition of immediate pigment darkening
An ethanol solution containing a test substance (0.5 wt. %) was added to a mixture of dopa (1 mM) and porphyrin (5 mM). A mixture of UV-A/UV-B (3 J/cm^2, measured at 365 nm) was irradiated onto the resultant mixture using a solar simulator. The amount of dopachrome formed by irradiation was determined by measuring absorption at 475 nm.

Take `C1CN2CCN1CC2` [1,4-diazabicyclo[2.2.2]octane, reference compound]: in assay [1], the “weakening of the 1,270 nm singlet oxygen emission peak with increasing quencher concentration” value was “the peak at 1,270 nm weakened”.

Turning to `COC(=O)C=Cc1ccc(OC)cc1` [Comparative compound (1), Methyl p-methoxycinnamate, reference compound], the inhibition in vivo at 5 % in assay [2] amounted to 31%. Besides, the ΔΔL value in assay [3] was 0.9. In [4], the inhibition in vivo at 1 % was 37%.

Take `[Cl][Cd][Cl]` [Comparative compound (2), Cadmium chloride, reference compound]: the “Inhibition ratio regarding sunburn cell formation” value in assay [4] is listed as 67%.

`Oc1ccc(O)cc1` [Comparative compound (3), Hydroquinone, reference compound] showed a ΔΔL value in [3] of 0.7.

For `[N-]=[N+]=[N-].[Na+]` [Comparative compound (4), Sodium azide, reference compound], the “Inhibition of wrinkle formation” value in the assay on skin of ICR/HR mice is listed as 28%. Also, the “Inhibition ratio regarding lipid peroxide formation” value in assay [5] (UV-A/UV-B 1 J/cm^2) turned out to be 37. Further, the “Prevention of DNA damage” value in [6] came out at 53%. Also, the “Protein denaturation inhibition ratio” value in the assay on collagen is given as 45%. Also, the “weakening of the 1,270 nm singlet oxygen emission peak with increasing quencher concentration” value in assay [1] is recorded as “the peak at 1,270 nm weakened”. Moreover, in assay [7], the “Inhibition ratio regarding immediate blackening” value is reported as 48%.

In turn, `O=C1O[C@H]([C@@H](O)CO)C(O)=C1O` [Comparative compound (5), Ascorbic acid, reference compound] showed an inhibition in vivo at 1 % with skin of ICR/HR mice of 11%. The inhibition at 0.01 wt% in assay [5] was 43%. Moreover, in assay [6], the “Prevention of DNA damage” value is 21%. Further, in assay [7], the “Inhibition ratio regarding immediate blackening” value came out at 42%.

In the assay on skin of ICR/HR mice, `Cc1c(C)c2c(c(C)c1O)CCC(C)(CCCC(C)CCCC(C)CCCC(C)C)O2` (stereo not drawn) [Comparative compound (6), α-Tocopherol, reference compound] had an inhibition in vivo at 1 % of 34%. Moreover, the inhibition at 0.01 wt% in assay [5] is 42%. In addition, the “Prevention of DNA damage” value in assay [6] came to 34%. Also, the “Protein denaturation inhibition ratio” value in the assay with collagen is listed as 30%.

With `OCCN(CCO)c1ccccc1` [Compound (36), N-phenyldiethanolamine], the inhibition in vivo at 5 % in [2] came out at 48%. The ΔΔL value in assay [3] was found to be 1.2. The inhibition at 0.01 wt% in [5] worked out at 46%. In addition, the “Prevention of DNA damage” value in [6] worked out at 58%. For the same molecule, the “Protein denaturation inhibition ratio” value in the assay with collagen is reported as 69%. In addition, the inhibition in vivo at 1 % in [4] came to 62%. Also, the “Extinction rate constant of singlet oxygen” value in assay [1] (kq, ethanol solution, 50 μM Rose Bengal, singlet oxygen lifetime taken as 10 μs) came out at 5.8e+07 M⁻¹ s⁻¹. The “Inhibition ratio regarding immediate blackening” value in assay [7] stood at 64%.

In the case of `CC1=C(/C=C/C(C)=C/C=C/C(C)=C/C=C/C=C(C)/C=C/C=C(C)/C=C/C2=C(C)CCCC2(C)C)C(C)(C)CCC1` [β-carotene, reference compound], the “weakening of the 1,270 nm singlet oxygen emission peak with increasing quencher concentration” value in assay [1] is “the peak at 1,270 nm weakened”.
